Experimental data as given in article PMC7913927, “Leishmanicidal Activity of Betulin Derivatives in Leishmania amazonensis; Effect on Plasma and Mitochondrial Membrane Potential, and Macrophage Nitric Oxide and Superoxide Production” (Microorganisms, 2021).
“Also recorded” adds a separate entry of the source.

How the values were obtained:
[1] = tested on: L. (L.) amazonensis LTB0016 promastigotes; experiment: Promastigote in vitro susceptibility (Alamar Blue/resazurin), reference strain; format: cell-based, Leishmania amazonensis; details: LTB0016, 50 µM
Protocol: The fluorometric method of Alamar Blue® (resazurin) was used. Promastigotes grown in biphasic agar-blood medium, at the exponential phase of growth, were seeded in flat-bottom 96-well culture plates, at a cell density of 1 × 10^6 parasites mL^−1 (200,000 parasites/well), in 180 µL of RPMIc without phenol red. Subsequently, either a sole concentration (50 µM), or increasing concentrations of compounds or drugs were applied, according to each treatment group, in volumes of 2 µL. Plates were kept at 26 °C, in a humid chamber, for 72 h. […] Live parasites are metabolically active and capable of reducing non-fluorescent resazurin (blue) to fluorescent resorufin (red). Fluorescence intensity is directly proportional to the number of viable cells. […] At least two independent experiments were performed in duplicate. The effect of trivalent antimonial [SbIII, potassium antimonyl tartrate trihydrate, Sigma-Aldrich, (St. Louis, MO, USA)] was included as positive control of the assay.

[2] = tested on: L. (L.) amazonensis LTB0016, VE98MR and VE2000MM promastigotes; experiment: Plasma membrane potential (ΔΨp), bisoxonol fluorescence; format: cell-based, Leishmania amazonensis; details: promastigotes of LTB0016, VE98MR, VE2000MM; 15 min; 18: 1 and 2 µM; vs untreated
Protocol: To evaluate the plasma membrane potential (ΔΨp), the fluorescent compound, bisoxonol, bis[1,3-diethylthiobarbituric acid] trimethine oxonol, was used, as well as a method optimized by Padrón-Nieves et al.. Initially, calibration curves for each strain, using increasing concentrations of KCl (0.5 to 75 mM), were performed in the late log growth phase Leishmania promastigotes in the presence of the potassium ionophore valinomycin. By this procedure, fluorescence values could be transformed into millivolts (mV), applying the Nernst equation, ΔΨp = −59.4 log(120/[KCl]). […] After 10 min of incubation in the dark, fluorescence was measured in a Victor^2 Wallac spectrofluorometer (Perkin Elmer, Turku, Finland), using the appropriate wavelengths (ex: 540 nm/em: 580 nm). […] Once the corresponding calibration curve for each strain was obtained, the effect of compounds on the ΔΨp was evaluated. […] After 10 min of incubation in the dark, fluorescence was measured, using the appropriate wavelengths (ex: 540 nm/em: 580 nm). […] To transform the fluorescence values in millivolts (mV), calibration curves were prepared using increasing concentrations of KCl (0.5, 1.15, 2.5, 5, 10, 20, 40, and 75 mM). […]

[3] = tested on: J774.1 macrophages, healthy or infected with LTB0016, VE98MR or VE2000MM; experiment: Superoxide (O2−) production, ferricytochrome c reduction; format: cell-based, murine; details: LTB0016- and VE98MR-infected macrophages; 48 h; 18: 1 and 2 µM
Protocol: The intracellular oxidative burst was evaluated by the production of the superoxide anion O2^−, using the method of reduction of ferricytochrome c, previously described. Macrophages from preceding experiments were used after removing the supernatant; the cells pretreated with compounds or AmB as positive control of the experiment were resuspended in 100 µL of Hanks saline (HBSS: 137 mM NaCl, 5.4 mM KCl, 1 mM MgSO4⋅7H2O, 1.3 mM CaCl2⋅H2O, 0.3 mM Na2HPO4, 0.44 mM KH2PO4, 4.2 mM NaHCO3, 5 mM glucose, pH 7.2) and incubated for 1 h in the presence of 2 mg mL^−1 (160 µM) of cytochrome c type III, at 37 °C and 5% CO2. The supernatant was saved to measure the change in optical density at 550 nm. Three independent experiments were performed in duplicate. The superoxide anion concentration was calculated using the reduced molar extinction coefficient of cytochrome c, 21 mM^−1 cm^−1. Therefore, [O2^−] = (ΔOD/6.3) × 100, where ΔOD is the variation of the optical density (reading-blank), and the result obtained corresponds to the concentration of superoxide anion expressed in nanomoles of O2^− released/2 × 10^5 cells. MLF (5 µM) and amphotericin-B (AmB, 0.1 µM), known to induce NO production in macrophages, were included as controls.

C=C(C)C1CCC2(C=NO)CCC3(C)C(CCC4C5(C)CCC(=NO)C(C)(C)C5CCC43C)C12 (stereo not drawn) [Compound 18]
growth inhibition [1]: at least 75%
Effect on plasma membrane potential (ΔΨp) [2]: significantly depolarized; also recorded: significantly depolarize the ΔΨp in all evaluated strains; also recorded: the collapse of the plasma membrane potential (ΔΨp) in a concentration-dependent way
Superoxide production, infected macrophages [3]: induced superoxide production in infected macrophages; also recorded: inducing an oxidative burst and thus increasing O2^− production
